Like-named read-outs stand apart in the source and are kept apart here. Marks after values point to notes of the source that are not given here.
Test system: ruminal microorganisms
Test: Effect of sulfur reducing agents on gas, volatile fatty acid and alcohol production, timothy hay with ruminal microorganisms (Example 7)
Format: cell-based, mixed rumen microorganisms from cows
Details: for H2 (% of all gases): 0.32 mmol/flask agent, timothy hay, mean of initial gas CO2 or N2 without added H2; for H2 (% of fermentation gas): molar percentage among gases excluding N2; for NDF remaining (% of DM): neutral detergent fiber after 24 h
Protocol: Initial in vitro experiments used timothy grass hay as substrate. For each digestion experiment, we obtained one-half liter of rumen contents from each of two ruminally-cannulated cows two to four hours after morning feeding. The digesta were mixed and ground in a Waring blender for 1 minute while being maintained under CO2 gas. Fluid was strained through four layers of cheese cloth followed by glass wool to remove large particles. Rumen fluid was added to a bicarbonate or 0.1 M sodium phosphate buffer with mineral salts.
Gas samples were collected continuously in mylar balloons, and gas volumes recorded at various time points. Glass tubing coated with epoxy was pushed into the opening on the mylar balloons. The tubing was connected to luer-lock connectors via nylon tubing. Samples were taken using glass syringes attached to the luer-lock connectors. Samples were stored in gas-tight vials for analysis of composition by GC with thermal conductivity detector. Rates of gas production were determined by fitting an inverted exponential equation.
The pH and reducing potential were determined using standard glass or platinum electrodes respectively, while maintaining the gas composition by keeping the flasks closed to the atmosphere with putty fitted around the electrodes. Liquid samples were collected at designated time points and analyzed by gas chromatography (GC) for alcohols (methanol, ethanol, propanol, butanol) volatile fatty acids (acetate, propionate, butyrate, etc). Rates of alcohol or VFA production were determined by fitting an inverted exponential equation.
True fiber digestibility was determined directly on the residue of digestion by refluxing in pH-neutral detergent solution for one hour, drying at 100° C. overnight and weighing.
An experiment was conducted to determine the effect of adding sulfur reducing agents on production of gases, volatile fatty acids, and alcohols. Twenty treatments were arranged in a 2×2×5 factorial design with factors of initial headspace gas (CO2 or N2), addition of 25 ml H2 gas to the initial headspace (+H2, —H2), or one of five sources of sulfur redox agents (0.32 mmol/flask): Na2SO4, Na2SO3, S^0, Na2S, or none. Samples (0.5 g timothy hay) were incubated for 24 hours and products measured as previously. At the start of the incubation, each 125-ml flask was perfused with respective gas. For treatments receiving added H2, 25 ml of perfused gas (at 1 atm pressure) was removed from the flask headspace and forced into the collection balloon. This removed gas was replaced with H2.

[1] = 24 h, mean of CO2 or N2 without added H2
[2] = mean of CO2 or N2 without added H2

Compound	H2 (% of all gases) (24 h)	1-propanol [1]	2Acet + 2Butyr − Propionate (estimated production of H2 equivalent from fermentation of sugar to VFA) [1]	Acetate [1]	Acetate:Butyrate, mole ratio [1]	Acetate:Propion, mole ratio [1]	Butyrate [1]	CH4 (% of all gases) [1]	CH4 (% of fermentation gas) [1]	CH4:CO2 (molar ratio) [1]	CH4:H2 (molar conc. ratio) [1]	CH4 production [1]	CO2 (% of all gases) [1]	CO2 (% of fermentation gas) [1]	CO2 production [1]	Ethanol [1]	H2 equivalent (H2 + 4 CH4) [1]	H2 production [1]	Isobutyrate [1]	Isovalerate [1]	also measured
[Na+].[Na+].[S-2] [Na2S]	0.078^b %	0 µmol	2660^a μmol	541^a μmol	6.91^a	2.59	202^a μmol	5.04^a %	14.3^a %	0.183^a	69^a	335^a μmol	42.9^b %	85.5^b %	1773^ab μmol	0 µmol	1344^a	5.2^b μmol	13.5^a μmol	14.7^a μmol	Eh [1]: −269^c; Propionate [1]: 541^a μmol; Total VFA [1]: 2190^a μmol; VFA-C [1]: 5455^a μmol; pH [1]: 6.47^b; valerate [1]: 19.5^a μmol; H2 (% of fermentation gas) [1]: 0.24^b %; NDF remaining (% of DM) [2]: 35.7^b % of DM
O=S([O-])[O-].[Na+].[Na+] [SO3, Na2SO3]	1.39^a %	5.4^6 μmol	1483^b μmol	293^b μmol	4.89^b	2.52	152^b μmol	0.12^b %	0.82^b %	0.010^b	0.1^b	6.6^b μmol	47.9^ab %	92.0^a %	1002^b μmol	25.8^5 μmol	103^b	76.6^a μmol	9.8^b μmol	12.3^b μmol	Eh: −264^bc; Propionate [1]: 293^b μmol; Total VFA [1]: 1206^b μmol; VFA-C [1]: 3071^b μmol; pH [1]: 6.72^a; valerate [1]: 2.33^c μmol; Methane production (H2 added at the beginning): ≤ 5 µmol; effect on methane production (each gas composition): strongly inhibited; H2 (% of fermentation gas) [1]: 8.18^a %; NDF remaining (% of DM) [2]: 57.2^a % of DM; valerate (starting with CO2, H2 added): 2.3 µmol; valerate (starting with CO2, H2 not added): 3.0 µmol; valerate (starting with N2, H2 added): 8.3 µmol; valerate (starting with N2, H2 not added): 1.7 µmol; hydrogen production (when H2 was added to initial headspace): -179 µmol
O=S(=O)([O-])[O-].[Na+].[Na+] [SO4, Na2SO4]	0.073^b %	0 µmol	2628^a μmol	538^a μmol	7.00^a	2.57	198^a μmol	5.02^a %	14.4^a %	0.182^a	85^a	363^a μmol	52.1^a %	85.4^b %	2298^ab μmol	0 µmol	1459^a	5.0^b μmol	12.0^a μmol	13.0^ab μmol	Eh: −247^ab; Propionate [1]: 538^a μmol; Total VFA [1]: 2162^a μmol; VFA-C [1]: 5370^a μmol; pH [1]: 6.45^b; valerate [1]: 16.7^b μmol; H2 (% of fermentation gas) [1]: 0.24^b %; NDF remaining (% of DM) [2]: 36.0^b % of DM
[S] [S^0]	0.080^b %	0 µmol	2840^a μmol	550^a μmol	7.57^a	2.72	198^a μmol	4.61^a %	13.8^a %	0.171^a	79^a	334^a μmol	50.5^a %	86.0^b %	1795^ab μmol	0 µmol	1340^a	5.9^b μmol	12.2^a μmol	13.3^ab μmol	Eh: −249^abc; Propionate [1]: 550^a μmol; Total VFA [1]: 2287^a μmol; VFA-C [1]: 5634^a μmol; pH [1]: 6.43^b; valerate [1]: 17.1^b μmol; H2 (% of fermentation gas) [1]: 0.22^b %; NDF remaining (% of DM) [2]: 36.5^b % of DM

Reference: patent US9121040B2, “Process for rapid anaerobic digestion of biomass using microbes and the production of biofuels therefrom” (priority 2006, dated 2015)
